{"source": "patent US10266549B2", "about": "“ULK1 inhibitors and methods using same” (SALK INSTITUTE FOR BIOLOGICAL STUDIES, priority 2014, dated 2019)", "key": {"A549 lung cancer cells": {"tested_on": "A549 lung cancer cells", "assay": "Cyto-ID autophagy detection in A549 cells", "assay_type": "cell-based", "conditions": "A549, 5 μM for 2 hr then 4 μM AZD8055 for 24 hr", "protocol": "FIG. 9E is an immunoflourescence imaging of A549 cells treated in the presence or absence of 5 μM compound 14 for 2 hr followed by 4 μM of the mTOR catalytic inhibitor AZD8055 for 24 hr. Autophagic vacuoles were detected using the Cyto-ID autophagy detection kit and are visualized in green, while cell nuclei were counterstained by DAPI and are visualized in blue.\nTo test the ability of compound 14 to block autophagy and cell survival, initial studies were performed in A549 lung cancer cells, which are highly sensitive to mTOR inhibition. […] Next, we genetically assessed the requirement for ULK1 versus other kinases inhibited by compound 14 to induce autophagy after pharmacological mTOR inhibition. A robust high-throughput microscopy method for quantifying GFP-LC3 puncta was established using a PC3 prostate-cancer cell line stably expressing a GFP-LC3 construct. Using this assay, we performed a focused RNAi analysis of the top 20 kinases identified in the DiscovRx screen as best binding to compound 14. […] Strikingly, of the 18 kinases tested, only one kinase siRNA, ULK1, nearly fully abolished the LC3 puncta induced by the mTOR inhibitors (FIG. 9D)."}, "WT ULK2": {"biological_target": "WT ULK2 (Homo sapiens (Human), UniProt Q8IYT8)", "sequence (Q8IYT8 whole entry)": "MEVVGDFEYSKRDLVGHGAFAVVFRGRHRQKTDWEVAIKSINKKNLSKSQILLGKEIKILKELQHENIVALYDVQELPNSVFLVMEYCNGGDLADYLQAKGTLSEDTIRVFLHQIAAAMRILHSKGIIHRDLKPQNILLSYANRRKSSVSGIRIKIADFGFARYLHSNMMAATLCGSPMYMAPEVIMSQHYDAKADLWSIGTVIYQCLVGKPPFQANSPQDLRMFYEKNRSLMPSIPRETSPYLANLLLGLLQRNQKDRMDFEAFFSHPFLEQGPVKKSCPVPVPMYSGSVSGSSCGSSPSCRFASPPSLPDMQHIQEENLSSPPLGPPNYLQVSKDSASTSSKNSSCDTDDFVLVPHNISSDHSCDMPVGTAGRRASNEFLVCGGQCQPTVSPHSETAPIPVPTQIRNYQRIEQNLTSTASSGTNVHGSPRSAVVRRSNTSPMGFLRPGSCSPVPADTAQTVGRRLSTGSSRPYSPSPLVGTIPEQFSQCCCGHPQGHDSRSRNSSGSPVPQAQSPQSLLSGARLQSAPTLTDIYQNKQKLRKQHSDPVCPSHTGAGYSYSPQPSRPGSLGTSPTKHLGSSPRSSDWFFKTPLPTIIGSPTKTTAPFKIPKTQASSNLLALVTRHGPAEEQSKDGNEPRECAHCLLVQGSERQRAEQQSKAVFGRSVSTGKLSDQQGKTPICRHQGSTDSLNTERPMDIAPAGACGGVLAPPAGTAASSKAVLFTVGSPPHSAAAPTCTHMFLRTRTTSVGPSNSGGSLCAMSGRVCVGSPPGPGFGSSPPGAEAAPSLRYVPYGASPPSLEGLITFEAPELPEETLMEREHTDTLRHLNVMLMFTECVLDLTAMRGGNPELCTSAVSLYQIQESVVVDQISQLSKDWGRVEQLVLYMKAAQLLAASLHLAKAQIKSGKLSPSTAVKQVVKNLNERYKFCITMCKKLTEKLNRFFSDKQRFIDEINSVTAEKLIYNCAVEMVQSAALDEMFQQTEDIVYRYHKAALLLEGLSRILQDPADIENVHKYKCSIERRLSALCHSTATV", "assay": "in vitro kinase assay, WT ULK2, MBP substrate, radiolabeled ATP", "assay_type": "biochemical", "conditions": "10-μM MBP, 30-μM γ-32P-ATP; triplicate, ten-dose, 3-fold serial dilution from 1 μM", "protocol": "(§1) WT ULK1 (left) and WT ULK2 (right) were assayed using 10-μM MBP in the presence of 30-μM radiolabeled γ-^32P-ATP.\n(§2) To further examine how ULK1 regulates autophagy, we sought to identify small molecule ATP competitive kinase inhibitors of ULK1. Screening a library of chemical compounds for inhibitors of ULK1 kinase activity in vitro, we identified a lead compound that was further elaborated through a medicinal chemistry effort to produce compound 14. […] To further characterize the ability of compound 14 and related derivatives to inhibit ULK1 in cells, we tested the ability of these compounds to inhibit the phosphorylation of Vps34 Ser249 when epitope-tagged Vps34 was co-expressed in HEK293T cells with a wild-type ULK1 cDNA. Screening 40 compounds, we found compound 14 inhibited P-Vps34 on overexpressed Vps34 when used at ˜5 μM (FIG. 7B). We next examined the sensitivity of phosphorylation of Vps34 Serine 249 versus Beclin Serine 15 to two structurally distinct ULK1 inhibitors, when cDNAs bearing each were introduced into HEK293T cells. […] (FIG. 11A)."}, "[1]": {"tested_on": "murine Kras p53 lung carcinoma cells", "assay": "AnnexinV apoptosis in Kras p53 lung carcinoma cells", "assay_type": "cell-based", "conditions": "selectively in the nutrient-starved state", "protocol": "For flow cytometry analysis, cells were collected at the appropriate time point, washed once in PBS, trypsinized and pelleted. For Annexin V staining, cells were washed in 1× Annexin V buffer and treated as described by the Annexin V staining protocol (BD Pharmingen, San Diego, Calif.). Briefly, cells were resuspended in Annexin V buffer to a concentration of one million per mL, 100,000 cells were then stained with 5 μL of phycoerythrin (PE)-conjugated Annexin V antibody (BD Pharmingen, San Diego, Calif.) and 5 μL of 7-amino-actinomycin D (7AAD) and then incubated at room temperature for 15 minutes. 400 μL of Annexin V buffer was then added to each sample with gentle mixing. Stained cells were analyzed using a FACScan flow cytometer (Becton Dickinson, San Jose, Calif.). Flow cytometry data was analyzed using FlowJo 8.6 software (Tree Star Inc., Ashland, Oreg.).\nThere has been great interest in the role of autophagy in the survival of tumor cells, particular tumor cells faced with metabolic stress from chemotherapies or targeted therapeutics. We next examined whether compound 14 would promote apoptosis in tumor cells similar to the MEFs, selectively under conditions in which autophagy is actively engaged. […]"}, "WT ULK1": {"biological_target": "WT ULK1 (Homo sapiens (Human), UniProt O75385)", "sequence (O75385 whole entry)": "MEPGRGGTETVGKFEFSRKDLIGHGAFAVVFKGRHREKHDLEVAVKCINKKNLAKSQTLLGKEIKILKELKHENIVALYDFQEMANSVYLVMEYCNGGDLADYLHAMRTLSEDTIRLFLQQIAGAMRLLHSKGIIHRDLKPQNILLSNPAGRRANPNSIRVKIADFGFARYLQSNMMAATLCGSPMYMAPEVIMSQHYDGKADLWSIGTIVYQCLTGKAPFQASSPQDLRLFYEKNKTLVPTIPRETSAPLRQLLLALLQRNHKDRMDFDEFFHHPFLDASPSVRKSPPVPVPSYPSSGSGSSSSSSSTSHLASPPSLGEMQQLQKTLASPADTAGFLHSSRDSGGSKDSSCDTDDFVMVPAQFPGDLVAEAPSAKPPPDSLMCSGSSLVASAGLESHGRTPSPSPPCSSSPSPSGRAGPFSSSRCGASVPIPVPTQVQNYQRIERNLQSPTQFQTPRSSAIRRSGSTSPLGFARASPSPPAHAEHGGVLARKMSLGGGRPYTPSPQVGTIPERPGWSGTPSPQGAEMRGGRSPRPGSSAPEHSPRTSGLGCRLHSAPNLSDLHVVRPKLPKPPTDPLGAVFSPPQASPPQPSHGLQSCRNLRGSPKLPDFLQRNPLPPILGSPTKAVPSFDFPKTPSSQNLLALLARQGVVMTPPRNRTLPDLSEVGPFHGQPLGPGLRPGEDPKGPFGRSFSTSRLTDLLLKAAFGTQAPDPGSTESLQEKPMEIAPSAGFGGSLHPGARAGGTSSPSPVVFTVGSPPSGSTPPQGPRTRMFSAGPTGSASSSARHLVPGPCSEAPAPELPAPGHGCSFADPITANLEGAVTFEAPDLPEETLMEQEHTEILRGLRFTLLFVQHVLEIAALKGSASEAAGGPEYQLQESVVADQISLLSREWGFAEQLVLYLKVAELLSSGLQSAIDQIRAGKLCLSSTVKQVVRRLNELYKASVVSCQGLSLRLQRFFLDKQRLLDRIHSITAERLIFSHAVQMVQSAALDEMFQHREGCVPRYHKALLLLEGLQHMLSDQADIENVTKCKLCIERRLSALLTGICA", "assay": "in vitro kinase assay, WT ULK1, MBP substrate, radiolabeled ATP", "assay_type": "biochemical", "conditions": "10-μM MBP, 30-μM γ-32P-ATP; triplicate, ten-dose, 3-fold serial dilution from 1 μM", "protocol": "as §1, §2"}, "ULK1": {"tested_on": "ULK1", "assay": "phosphorylation of ULK1 substrates (Vps34 Ser249, Beclin Ser15) in HEK293T cells co-expressing wild-type ULK1", "assay_type": "cell-based, human", "protocol": "At 24-hr post-transfection, cells were treated with a panel of putative ULK1 competitive inhibitors in a dose-response manner (1, 10, 50 μM). Cellular lysates were isolated after 1 hr of treatment and immunoblotted with the indicated antibodies. Representative results for compound 14 are shown.\nFIG. 7C: HEK293T cells were transfected with WT or KI ULK1 and WT Vps34 (left) or WT Flag-tagged Beclin1 (WT Beclin1; right). At 24-hr post-transfection, cells were treated with compound 14 (10 μM) or DMSO. Cellular lysates were isolated after 1 hr of treatment and immunoblotted with the indicated antibodies.\nFor transient expression in HEK293T cells were transfected with 2 ug each DNA plasmid per 6 cm dish using Lipofectamine 2000 (Invitrogen) following the manufacturer's protocol. Cells were harvested 24 hours after transfection and rinsed once with ice-cold PBS and lysed in boiling SDS lysis buffer (10 mM Tris pH7.5, 100 mM NaCl, 1% SDS). After trituration, lysates were equilibrated for protein levels using the BCA method (Pierce) and resolved on 8 to 15% SDS-PAGE Phos-Tag™ gels according to the manufacturer's instructions. Briefly, Phos-Tag™ AAL-107 (HARD #304-93521) was added to SDS-PAGE acryamide mixture at a final concentration of 50 μM along with MnCl2 at a final concentration of 100 μM. […]"}}}
{"smiles": "CNC(=O)c1ccccc1Nc1nc(Nc2cc(OC)c(OC)c(OC)c2)ncc1Br", "note": "[compound 14, 2-(5-bromo-2-(3,4,5-trimethoxyphenylamino)pyrimidin-4-ylamino)-N-methylbenzamide]", "values": [{"measurement": "AZD8055-induced autophagy (Cyto-ID autophagy dye accumulation)", "setting": "A549 lung cancer cells", "result": "strongly suppressed"}, {"measurement": "IC50", "setting": "WT ULK2", "result": 0.711, "unit": "µM"}, {"measurement": "apoptosis (AnnexinV+ cells)", "setting": "[1]", "result": "promoted apoptosis"}, {"measurement": "IC50", "setting": "WT ULK1", "result": 0.107, "unit": "µM"}, {"measurement": "inhibition of Beclin Ser15 and Vps34 Ser249 phosphorylation", "setting": "ULK1; 10 μM, 1 hr", "result": "inhibited Beclin Ser15 and Vps34 Ser249 to comparable extents"}, {"measurement": "concentration inhibiting P-Vps34 on overexpressed Vps34", "setting": "ULK1; WT ULK1 + Flag-Vps34, 1 hr treatment", "result": "~5", "unit": "µM"}]}
